Assay results reported in patent US11472812B2, “Anti-cancer compounds targeting Ral GTPases and methods of using the same” (The Regents of the University of Colorado, a body corporate, priority 2014, dated 2022).
Entries after “also recorded” stand apart in the source; their conditions may differ.

Key:
[1] = tested on: H2122 human lung cancer cells; assay: Cellular uptake, LC/MS-MS of cell lysates; type: in vitro ADME; settings: 10 μM, 1-60 min
Experimental: To quantitate how well the test compounds get into cells, H2122 human lung cancer cells were seeded at 3×10^5 cells per well in 6-well plates and let sit for 16 h. Compounds (10 μM) were individually dosed in triplicate; cells were then collected into 500 μl ice-cold ACN:MeOH:H2O (1:1:1) at different time points (1, 5, 15, 30 and 60 min). Drug concentrations in cell lysates were then determined using LC/MS-MS methods as described with respect to the pharmacokinetic and pharmacodynamic studies in mice, described in detail in Example 5, below.

[2] = tested on: H2122 human lung cancer cells; assay: H2122 xenograft tumor growth; type: in vivo, nude mice; settings: i.p. daily except weekends, initiated 24 h after inoculation; RBC8 50 mg/kg/d; BQU57 and BQU85 5, 10, 20, and 50 mg/kg/d
Experimental: We next determined compound entry into tumor tissue. To do so, athymic nude mice (Ncr nu/nu; National Cancer Institute, Fredrick, Md.) were received at 5 to 6 weeks of age and were allowed to acclimate for 2 weeks in sterile micro isolator cages with constant temperature and humidity. Mice had free access to food and water. H2122 cells in log-phase growth were harvested on the day of use. Cells were suspended in un-supplemented RPMI 1640 medium and 0.1 mL (2×10^5 cells) was injected s.c. four sites per mice. For H358 xenografts, cells (5×10^6) were mixed with matrigel (20% final concentration) and 0.1 mL was inoculated s.c. per site. After cell inoculation, mice were monitored daily, weighed twice weekly and caliper measurements begun when tumors visible. Tumor volume was calculated by (L×W2)/2, where L is longer measurement of tumor and W is the smaller tumor measurement. Drug treatment started the day after inoculation. Compounds were dissolved in DMSO and injected i.p. daily except weekends at 10/20/50 mg/kg. […] The effect of the Ral inhibitors on xenograft tumor growth was then tested in nude mice. Mice were inoculated subcutaneously with H2122 human lung cancer cells and treated intraperitoneally with 50 mg/kg/d (except weekends) of RBC8 24 h post inoculation.

## Cn1nc(-c2ccccc2)c2c1OC(N)=C(C#N)C2c1ccc(OC(F)(F)F)cc1 (centres unmarked) [BQU85, 6-amino-1-methyl-3-phenyl-4-(4-(trifluoromethoxy)phenyl)-1,4-dihydropyrano[2,3-c]pyrazole-5-carbonitrile]
[1]
  cellular uptake: readily get into cells
[2]
  xenograft tumor growth inhibition: dose-dependent growth inhibition effects were observed; also recorded: inhibited xenograft tumor growth
